From ChEMBL document CHEMBL1201862, “PubChem BioAssay data set” (2004)
Activity calls are given as the source filed them.

Assays:
[1] = target: T1, Kappa-type opioid receptor (Homo sapiens, UniProt P41145); test: KOR antagonists by imaging, SAR follow-up, image-based (AID 2348); type: functional
Mu-type opioid receptor [2] = target: T2, Mu-type opioid receptor (Homo sapiens, UniProt P35372); test: HTS Image-Based Screen for Agonists of the MOR Receptor. [Related pubchem assays (depositor defined):AID1777, AID1785, AID1786, AID2133]; type: functional
[3] = target: T1, Kappa-type opioid receptor; type: functional
Mu-type opioid receptor [4] = target: T2, Mu-type opioid receptor; test: MOR agonists by imaging, SAR follow-up, image-based (AID 2352); type: functional
[5] = target: T3, Delta-type opioid receptor (Homo sapiens, UniProt P41143); test: DOR agonists, SAR follow-up, image-based (AID 2370); type: functional
[6] = target: T3, Delta-type opioid receptor; test: HTS Image-Based Screen for Agonists of the DOR Receptor. [Related pubchem assays (depositor defined):AID1777, AID1786, AID2133]; type: functional
[7] = target: T1, Kappa-type opioid receptor; test: SAR analysis of small molecule agonists of the kappa opioid receptor via a luminescent beta-arrestin assay. [Related pubchem assays (depositor defined):AID1777, AID1786, AID1966, AID2133, AID2136, AID2348, AID2352, AID2357, AID2359, AID2370, AID2420, AID2478, AID2491, AID2492, AID2493, AID2497, AID2498, AID2500, AID449737, AID488822, AID488842]; type: functional
[8] = target: T3, Delta-type opioid receptor; test: HTS Image-Based Screen for Antagonists of the DOR Receptor. [Related pubchem assays (depositor defined):AID1777, AID1785, AID1786, AID2133]; type: functional
[9] = target: T3, Delta-type opioid receptor; test: DOR antagonists, SAR follow-up, image-based (AID 2357); type: functional
[10] = target: Neuropeptide Y receptor type 1 (Homo sapiens, UniProt P25929); type: functional;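 also: HEK293 cells with a CNG channel challenged with NPY then isoproterenol; potency as antagonist that reverses NPY suppression of cAMP signal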
[11] = target: Neuropeptide Y receptor type 2 (Homo sapiens, UniProt P49146); type: functional, cell-based;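 also: HEK293 cells expressing the receptor and a CNG channel; stimulus was NPY near EC95 followed by isoproterenol to raise cAMP; antagonist potency measured as restoring cAMP signal that NPY suppresses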
[12] = target: T1, Kappa-type opioid receptor; type: functional; remark: listed apart in the source
[13] = target: T1, Kappa-type opioid receptor; test: KOR agonist analogs, imaging readout, SAR follow-up, image-based (AID 2359); type: functional
[14] = target: T4, Heat shock factor protein 1 (Mus musculus, UniProt P38532); test: HSF1 potentiators in luciferase reporter cells, confirmation, cell-based, NIH3T3, luminescence, dose retest (AID 435004); type: functional;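 also: stress induced by proteasome inhibitor MG132 added 30 min after compound; luciferase reporter driven by HSF1 response element in NIH3T3 cells; actives raise luminescence as potentiators of the MG132 stress response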
T4 sequence (P38532 whole entry): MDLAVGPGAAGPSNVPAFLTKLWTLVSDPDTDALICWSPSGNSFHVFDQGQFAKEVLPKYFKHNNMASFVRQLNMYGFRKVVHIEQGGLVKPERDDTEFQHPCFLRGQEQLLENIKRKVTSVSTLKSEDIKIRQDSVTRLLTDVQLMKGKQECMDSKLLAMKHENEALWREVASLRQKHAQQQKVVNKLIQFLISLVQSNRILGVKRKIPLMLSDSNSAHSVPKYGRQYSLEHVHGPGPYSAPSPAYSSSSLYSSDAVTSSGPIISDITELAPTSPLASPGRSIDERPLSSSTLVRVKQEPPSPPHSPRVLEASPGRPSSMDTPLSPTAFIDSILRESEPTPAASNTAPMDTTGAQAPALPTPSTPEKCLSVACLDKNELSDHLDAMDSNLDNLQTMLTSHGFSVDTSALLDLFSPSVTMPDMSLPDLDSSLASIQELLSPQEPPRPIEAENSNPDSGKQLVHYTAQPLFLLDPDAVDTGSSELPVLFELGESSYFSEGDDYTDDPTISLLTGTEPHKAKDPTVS

Mu-type opioid receptor [15] = target: T2, Mu-type opioid receptor; test: MOR antagonists, SAR follow-up, image-based (AID 2420); type: functional;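 also: compounds added before stimulation of receptor with agonist DAMGO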
Estrogen receptor beta = Estrogen receptor beta (Homo sapiens, UniProt Q92731);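 also: recombinant ER-beta bound to coactivator SRC1 peptide in presence of estradiol agonist; inhibitors block coactivator peptide binding and lower the FRET signal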
[16] = target: T5, Polyadenylate-binding protein 1 (Homo sapiens, UniProt P11940); test: PABP poly(A) RNA binding inhibitors, primary screen, biochemical, fluorescence polarization, uHTS (AID 2014)
[17] = target: T6, Eukaryotic translation initiation factor 4H (Homo sapiens, UniProt Q15056); test: human eIF4H binding inhibitors, primary screen, translation initiation inhibitor project, biochemical, uHTS, fluorescence polarization (AID 2012)
[18] = target: T6, Eukaryotic translation initiation factor 4H; test: eIF4H inhibition in translation initiation, SAR follow-up (AID 435011); type: functional
[19] = target: T5, Polyadenylate-binding protein 1; test: PABP inhibition in translation initiation, SAR follow-up (AID 435018); type: functional
[20] = target: T5, Polyadenylate-binding protein 1; test: SAR analysis for the identification of translation initiation inhibitors (PABP) via an Electrophoretic Mobility Shift Dose Response Assay. [Related pubchem assays (depositor defined):AID2012, AID2014, AID2030]; type: functional
Exodeoxyribonuclease V = Exodeoxyribonuclease V (Escherichia coli (strain K12), UniProt P04993+P07648+P08394); test: E. coli RecBCD inhibitors, dose response, counter-screen for AddAB inhibitor project, absorbance, V66 E. coli, mutant T4 phage (AID 492957); type: functional, cell-based, Escherichia coli str. K-12 substr. MG1655
[21] = Counterscreen for AddAB inhibitors: absorbance-based bacterial cell-based high throughput dose response assay for inhibitors of bacterial viability. [Related pubchem assays (depositor defined):AID435030, AID449728, AID449731, AID488942, AID488955, AID488956]; type: functional
Trypsin = Trypsin (Sus scrofa, UniProt P00761); test: porcine trypsin inhibitors, dose response, selectivity assay for Rce1 protease inhibitor project, biochemical, quenched peptide fluorescence, cherry-pick (AID 488789)
Cytochrome P450 2D6 [22] = target: T7, Cytochrome P450 2D6 (Homo sapiens, UniProt P10635);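 also: CYP2D6 member of a cytochrome P450 panel assay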
CAAX prenyl protease 1 = CAAX prenyl protease 1 (Saccharomyces cerevisiae S288c, UniProt P47154); test: Ste24 protease inhibitors, dose response, biochemical, S. cerevisiae, plate reader, cherry-pick (AID 488815)
[23] = target: Lysine-specific demethylase 4C (Homo sapiens, UniProt Q9H3R0); test: GASC-1 (JMJD2C) histone demethylase inhibitors, dose response, biochemical, DELFIA europium, cherry-picked samples (AID 488835); type: functional
[24] = target: Lysine-specific demethylase 4A (Homo sapiens, UniProt O75164); test: JMJD2A histone demethylase inhibitors, dose response, selectivity assay for GASC-1 inhibitor project, biochemical, DELFIA europium, cherry-picked samples (AID 488840)
[25] = target: T8, Voltage-gated N-type calcium channel alpha-1B subunit/Amyloid beta A4 precursor protein-binding family A member 1 (Homo sapiens, UniProt Q00975+Q02410); test: disruptors of Mint-PDZ/N-type channel peptide interaction – biochemical, HTRF, SAR follow-up (AID 2489); type: functional
SUMO E1/E2 = SUMO E1/E2 (Homo sapiens, UniProt P63279+Q9UBE0+Q9UBT2); test: SAR analysis of SUMOylation using HTRF in an in-Vitro dose response assay. [Related pubchem assays (depositor defined):AID2006, AID2011, AID2018, AID2069, AID2658]; type: functional
[26] = target: T8, Voltage-gated N-type calcium channel alpha-1B subunit/Amyloid beta A4 precursor protein-binding family A member 1; test: disruptors of Mint-PDZ/N-type channel peptide interaction – biochemical, HTRF, set 2, SAR follow-up (AID 434980); type: functional
[27] = target: T1, Kappa-type opioid receptor; test: SAR analysis of small molecule agonists of the kappa opioid receptor via a luminescent beta-arrestin assay - Set 3. [Related pubchem assays (depositor defined):AID1777, AID1785, AID1786, AID1966, AID2133, AID2136, AID2284, AID2500]; type: functional
[28] = target: T9, Alkaline phosphatase, tissue-nonspecific isozyme (Homo sapiens, UniProt P05186); test: TNAP enzyme activators, dose response, selectivity assay for human IAP activator project, biochemical, TNAP isozyme, human IAP uHTS hits (AID 488886); type: functional;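 also: potency of compounds raising TNAP activity as a selectivity check on IAP activators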
T9 sequence (P05186 whole entry): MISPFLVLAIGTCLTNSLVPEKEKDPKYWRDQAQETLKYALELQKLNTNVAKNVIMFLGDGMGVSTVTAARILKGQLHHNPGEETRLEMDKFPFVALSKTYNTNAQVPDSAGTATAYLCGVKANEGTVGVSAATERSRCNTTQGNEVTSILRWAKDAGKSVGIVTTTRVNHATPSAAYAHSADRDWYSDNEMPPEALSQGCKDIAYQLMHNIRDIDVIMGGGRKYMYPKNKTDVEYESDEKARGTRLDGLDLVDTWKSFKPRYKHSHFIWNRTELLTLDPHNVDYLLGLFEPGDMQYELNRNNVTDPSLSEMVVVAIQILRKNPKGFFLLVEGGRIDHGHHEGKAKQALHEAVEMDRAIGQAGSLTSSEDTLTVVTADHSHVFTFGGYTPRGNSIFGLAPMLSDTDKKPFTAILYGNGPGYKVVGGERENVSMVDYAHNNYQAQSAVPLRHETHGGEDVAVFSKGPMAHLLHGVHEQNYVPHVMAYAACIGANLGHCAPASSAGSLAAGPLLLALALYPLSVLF

[29] = target: T10, Intestinal-type alkaline phosphatase (Homo sapiens, UniProt P09923); test: human intestinal alkaline phosphatase activators, dose response, biochemical, luminescence, uHTS hits (AID 463120); type: functional
[30] = target: T10, Intestinal-type alkaline phosphatase; test: human IAP activators, dose response, biochemical, luminescent, uHTS hits, set 2 (AID 488817); type: functional;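 also: potency of activators that raise enzyme activity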
[31] = target: Intestinal-type alkaline phosphatase (Mus musculus, UniProt P24822); test: PubChem AID 488874; type: functional
Cytochrome P450 3A4 = Cytochrome P450 3A4 (Homo sapiens, UniProt P08684);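 also: CYP3A4 tested as one member of a cytochrome P450 panel screen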
Cytochrome P450 1A2 = target: T11, Cytochrome P450 1A2 (Homo sapiens, UniProt P05177);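 also: PubChem cytochrome P450 panel assay, CYP1A2 panel member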
T11 sequence (P05177 whole entry): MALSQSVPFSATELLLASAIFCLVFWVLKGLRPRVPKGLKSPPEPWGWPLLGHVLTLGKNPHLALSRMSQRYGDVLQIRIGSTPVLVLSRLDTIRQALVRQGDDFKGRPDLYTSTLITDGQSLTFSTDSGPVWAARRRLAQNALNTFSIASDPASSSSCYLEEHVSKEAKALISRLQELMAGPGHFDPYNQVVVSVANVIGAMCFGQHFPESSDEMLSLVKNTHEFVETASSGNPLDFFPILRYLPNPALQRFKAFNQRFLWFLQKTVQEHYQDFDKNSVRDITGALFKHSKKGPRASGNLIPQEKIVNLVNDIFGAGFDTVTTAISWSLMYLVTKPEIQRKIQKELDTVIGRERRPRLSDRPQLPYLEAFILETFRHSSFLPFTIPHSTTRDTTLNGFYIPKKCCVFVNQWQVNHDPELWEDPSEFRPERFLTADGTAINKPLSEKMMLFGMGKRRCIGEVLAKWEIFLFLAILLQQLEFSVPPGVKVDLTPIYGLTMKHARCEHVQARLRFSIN

Cytochrome P450 2D6 [32] = target: T7, Cytochrome P450 2D6; remark: listed apart in the source
Cytochrome P450 2C19 = Cytochrome P450 2C19 (Homo sapiens, UniProt P33261); test: Cytochrome panel assay with activity outcomes. Panel member name: p450-cyp2c19 Compounds with AC50 equal or less than 10 uM are considered active; type: functional

T2 sequence (P35372 whole entry): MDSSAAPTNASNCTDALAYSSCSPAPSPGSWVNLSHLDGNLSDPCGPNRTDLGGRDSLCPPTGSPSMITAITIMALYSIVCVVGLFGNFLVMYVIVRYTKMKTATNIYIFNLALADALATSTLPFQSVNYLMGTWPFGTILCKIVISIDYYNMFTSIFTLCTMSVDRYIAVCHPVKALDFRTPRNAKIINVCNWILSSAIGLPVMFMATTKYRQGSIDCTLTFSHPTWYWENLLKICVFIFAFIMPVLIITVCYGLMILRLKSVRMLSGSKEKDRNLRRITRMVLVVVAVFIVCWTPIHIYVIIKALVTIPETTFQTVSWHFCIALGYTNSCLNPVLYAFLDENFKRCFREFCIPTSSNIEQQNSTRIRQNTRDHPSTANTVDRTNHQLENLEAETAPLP
T3 sequence (P41143 whole entry): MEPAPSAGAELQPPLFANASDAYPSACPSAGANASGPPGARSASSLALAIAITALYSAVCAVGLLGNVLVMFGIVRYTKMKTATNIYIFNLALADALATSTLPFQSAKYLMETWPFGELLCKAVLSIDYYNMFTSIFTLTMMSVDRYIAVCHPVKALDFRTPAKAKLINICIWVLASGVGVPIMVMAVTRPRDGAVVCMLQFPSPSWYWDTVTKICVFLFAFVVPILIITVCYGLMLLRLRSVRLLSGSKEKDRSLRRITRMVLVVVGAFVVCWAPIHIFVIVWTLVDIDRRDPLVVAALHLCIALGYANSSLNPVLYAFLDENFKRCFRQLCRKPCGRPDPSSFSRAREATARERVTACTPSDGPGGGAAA
T5 sequence (P11940 whole entry): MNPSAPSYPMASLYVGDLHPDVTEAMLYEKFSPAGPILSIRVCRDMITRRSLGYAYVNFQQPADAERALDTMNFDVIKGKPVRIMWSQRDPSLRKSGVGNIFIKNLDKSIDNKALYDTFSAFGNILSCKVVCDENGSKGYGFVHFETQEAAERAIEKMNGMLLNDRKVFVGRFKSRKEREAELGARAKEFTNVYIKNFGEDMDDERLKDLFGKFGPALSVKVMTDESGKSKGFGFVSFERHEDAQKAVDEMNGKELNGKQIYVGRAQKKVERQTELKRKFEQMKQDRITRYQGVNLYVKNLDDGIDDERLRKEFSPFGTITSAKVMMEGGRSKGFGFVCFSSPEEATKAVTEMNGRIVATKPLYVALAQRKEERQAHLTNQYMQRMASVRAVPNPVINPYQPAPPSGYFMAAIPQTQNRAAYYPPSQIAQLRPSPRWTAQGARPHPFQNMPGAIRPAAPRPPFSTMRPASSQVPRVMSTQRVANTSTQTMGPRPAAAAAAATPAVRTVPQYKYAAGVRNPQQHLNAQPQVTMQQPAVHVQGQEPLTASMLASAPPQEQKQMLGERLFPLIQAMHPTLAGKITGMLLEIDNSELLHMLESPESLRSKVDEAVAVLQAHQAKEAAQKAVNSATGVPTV
T1 sequence (P41145 whole entry): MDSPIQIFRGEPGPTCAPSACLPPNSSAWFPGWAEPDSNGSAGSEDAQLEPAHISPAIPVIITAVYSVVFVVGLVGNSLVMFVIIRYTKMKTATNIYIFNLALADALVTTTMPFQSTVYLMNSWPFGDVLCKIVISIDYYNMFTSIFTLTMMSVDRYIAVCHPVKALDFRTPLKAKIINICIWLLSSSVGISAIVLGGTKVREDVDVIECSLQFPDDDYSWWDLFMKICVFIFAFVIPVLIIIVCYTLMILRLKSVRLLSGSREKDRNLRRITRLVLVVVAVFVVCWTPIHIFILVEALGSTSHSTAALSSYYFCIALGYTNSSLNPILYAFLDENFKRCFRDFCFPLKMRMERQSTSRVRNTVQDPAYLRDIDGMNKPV
T8 sequence (Q00975 whole entry): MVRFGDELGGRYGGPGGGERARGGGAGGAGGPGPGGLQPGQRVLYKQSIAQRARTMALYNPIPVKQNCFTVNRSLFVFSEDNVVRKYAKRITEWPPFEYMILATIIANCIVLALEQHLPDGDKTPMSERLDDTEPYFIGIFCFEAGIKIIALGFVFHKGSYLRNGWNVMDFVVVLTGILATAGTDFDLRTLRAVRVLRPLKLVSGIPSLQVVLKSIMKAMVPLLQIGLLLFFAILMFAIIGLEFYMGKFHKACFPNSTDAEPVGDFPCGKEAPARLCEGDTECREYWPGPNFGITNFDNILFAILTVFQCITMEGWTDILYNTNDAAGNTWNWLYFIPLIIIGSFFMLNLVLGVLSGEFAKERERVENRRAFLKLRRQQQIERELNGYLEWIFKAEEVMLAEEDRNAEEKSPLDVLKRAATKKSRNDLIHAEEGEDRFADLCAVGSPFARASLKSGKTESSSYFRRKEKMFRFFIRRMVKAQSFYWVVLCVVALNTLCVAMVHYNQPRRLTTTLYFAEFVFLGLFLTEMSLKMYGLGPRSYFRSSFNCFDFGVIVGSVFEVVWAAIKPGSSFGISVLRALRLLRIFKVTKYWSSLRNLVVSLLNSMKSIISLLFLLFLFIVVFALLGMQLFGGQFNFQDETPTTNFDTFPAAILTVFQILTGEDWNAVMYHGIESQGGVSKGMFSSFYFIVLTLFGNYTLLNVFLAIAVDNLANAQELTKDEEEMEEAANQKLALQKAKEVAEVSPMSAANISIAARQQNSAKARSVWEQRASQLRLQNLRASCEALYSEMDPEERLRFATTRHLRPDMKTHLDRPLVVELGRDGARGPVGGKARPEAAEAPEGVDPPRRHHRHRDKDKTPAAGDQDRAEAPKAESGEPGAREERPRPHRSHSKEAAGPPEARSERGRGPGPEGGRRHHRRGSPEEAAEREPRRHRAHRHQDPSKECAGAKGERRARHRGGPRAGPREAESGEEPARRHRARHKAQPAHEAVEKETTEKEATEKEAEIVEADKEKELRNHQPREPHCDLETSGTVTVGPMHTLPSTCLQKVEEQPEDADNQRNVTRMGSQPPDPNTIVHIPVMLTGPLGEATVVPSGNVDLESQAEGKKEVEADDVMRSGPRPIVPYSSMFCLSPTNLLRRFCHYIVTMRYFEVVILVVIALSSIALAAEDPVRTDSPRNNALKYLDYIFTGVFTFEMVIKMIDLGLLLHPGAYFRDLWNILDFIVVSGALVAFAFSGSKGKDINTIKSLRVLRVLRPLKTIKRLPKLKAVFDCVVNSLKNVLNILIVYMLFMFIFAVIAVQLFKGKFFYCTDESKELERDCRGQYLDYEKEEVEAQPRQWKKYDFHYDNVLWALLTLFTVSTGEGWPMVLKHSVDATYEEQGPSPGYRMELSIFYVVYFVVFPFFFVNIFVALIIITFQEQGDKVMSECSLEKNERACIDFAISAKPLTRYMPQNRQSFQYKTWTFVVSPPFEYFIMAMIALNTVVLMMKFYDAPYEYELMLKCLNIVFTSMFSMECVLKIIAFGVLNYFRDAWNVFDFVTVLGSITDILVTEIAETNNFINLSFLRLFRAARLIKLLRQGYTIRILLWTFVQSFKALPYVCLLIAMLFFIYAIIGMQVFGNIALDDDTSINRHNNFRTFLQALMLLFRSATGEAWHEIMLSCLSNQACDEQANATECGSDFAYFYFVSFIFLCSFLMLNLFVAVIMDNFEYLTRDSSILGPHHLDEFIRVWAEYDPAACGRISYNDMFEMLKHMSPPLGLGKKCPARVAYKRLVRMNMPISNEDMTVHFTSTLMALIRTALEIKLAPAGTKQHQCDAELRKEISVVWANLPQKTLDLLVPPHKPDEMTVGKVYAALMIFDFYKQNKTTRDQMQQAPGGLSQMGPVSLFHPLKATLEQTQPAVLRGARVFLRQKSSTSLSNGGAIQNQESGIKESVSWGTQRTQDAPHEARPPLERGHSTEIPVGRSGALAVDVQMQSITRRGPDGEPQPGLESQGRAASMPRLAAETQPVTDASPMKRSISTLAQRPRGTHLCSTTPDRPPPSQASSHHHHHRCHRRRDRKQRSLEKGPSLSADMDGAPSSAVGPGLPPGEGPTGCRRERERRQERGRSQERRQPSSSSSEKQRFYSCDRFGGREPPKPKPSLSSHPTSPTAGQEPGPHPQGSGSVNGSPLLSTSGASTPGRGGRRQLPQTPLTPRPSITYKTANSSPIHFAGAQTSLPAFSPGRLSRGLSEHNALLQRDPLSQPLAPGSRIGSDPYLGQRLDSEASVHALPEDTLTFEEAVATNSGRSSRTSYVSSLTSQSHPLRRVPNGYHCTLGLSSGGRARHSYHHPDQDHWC
T8 sequence (Q02410 whole entry): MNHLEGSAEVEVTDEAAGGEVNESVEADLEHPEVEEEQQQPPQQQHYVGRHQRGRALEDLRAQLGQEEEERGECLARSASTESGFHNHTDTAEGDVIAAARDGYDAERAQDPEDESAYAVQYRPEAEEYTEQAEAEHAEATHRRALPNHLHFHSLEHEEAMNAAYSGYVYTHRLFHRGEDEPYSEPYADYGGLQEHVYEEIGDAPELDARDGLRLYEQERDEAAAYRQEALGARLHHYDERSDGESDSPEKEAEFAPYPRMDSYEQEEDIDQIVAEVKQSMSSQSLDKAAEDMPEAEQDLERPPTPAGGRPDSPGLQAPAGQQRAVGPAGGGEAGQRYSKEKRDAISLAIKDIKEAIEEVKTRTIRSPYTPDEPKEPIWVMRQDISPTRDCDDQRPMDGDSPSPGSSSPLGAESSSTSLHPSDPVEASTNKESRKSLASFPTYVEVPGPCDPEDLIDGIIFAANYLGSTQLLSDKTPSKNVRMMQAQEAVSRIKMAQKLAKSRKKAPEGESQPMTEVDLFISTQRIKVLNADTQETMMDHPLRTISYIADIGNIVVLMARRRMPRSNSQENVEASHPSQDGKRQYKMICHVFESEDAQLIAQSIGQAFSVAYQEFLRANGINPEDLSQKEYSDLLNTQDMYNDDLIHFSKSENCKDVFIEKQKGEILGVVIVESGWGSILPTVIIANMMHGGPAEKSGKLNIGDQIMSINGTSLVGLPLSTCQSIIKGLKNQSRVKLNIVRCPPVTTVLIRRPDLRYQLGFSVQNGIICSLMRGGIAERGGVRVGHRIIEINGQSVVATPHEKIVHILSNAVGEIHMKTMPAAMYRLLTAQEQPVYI

SMILES: Brc1ccc(CSc2nnc(-c3ccccn3)n2Cc2ccco2)cc1
- IC50 [1]: > 32 µM (inactive)
- EC50 (Mu-type opioid receptor [2]): > 32 µM (inactive)
- EC50 [3]: 5.64 µM
- EC50 (Mu-type opioid receptor [4]): > 32 µM (inactive)
- EC50 [5]: > 32 µM (inactive)
- EC50 [6]: > 32 µM (inactive)
- EC50 [7]: 1.92 µM (active)
- IC50 [8]: > 32 µM (inactive)
- IC50 [9]: > 32 µM (inactive)
- IC50 [10]: 7.44 µM (active)
- IC50 [11]: 8.06 µM (active)
- EC50 [12]: 1.88 µM
- EC50 [13]: 1.36 µM (active)
- EC50 [14]: 36.6 µM (active)
- IC50 (Mu-type opioid receptor [15]): > 32 µM (inactive)

SMILES: CCOC(=O)N1CCC(NC(=O)c2cccc3c2C(=O)N(c2ccc(OC)cc2)C3)CC1
- IC50 (Estrogen receptor beta): > 50 µM (not active)
- IC50 [16]: 76.2 µM (active)
- IC50 [17]: 9.51 µM (active)
- IC50 [18]: 6.47 µM (active)
- IC50 [19]: > 100 µM (inactive)
- IC50 [20]: 10 µM (active)

SMILES: O=C(CSc1nc2ccccc2o1)Nc1ccc(N2CCOCC2)cc1
- IC50 (Exodeoxyribonuclease V): > 119 µM (inactive)
- IC50 [21]: > 119 µM (inactive)

SMILES: C=CCNc1oc(/C=C/c2ccccc2)nc1C#N
- AC50 (Trypsin): 23.5 µM (active)
- AC50 (Cytochrome P450 2D6 [22]): 20 µM (inconclusive)
- AC50 (CAAX prenyl protease 1): 63.7 µM (active)

SMILES: CCCCn1c(-c2ccsc2)nc2c1c(=O)[nH]c(=O)n2CCC
- AC50 [23]: 4.19 µM (active)
- AC50 [24]: 12.2 µM (active)

SMILES: O=C(OCC(=O)N1CCc2ccccc2C1)c1cc(-c2ccco2)nc2ccccc12
- IC50 [25]: > 56.8 µM (inactive)
- IC50 (SUMO E1/E2): 3.76 µM (active)
- IC50 [26]: 10.2 µM (active)

SMILES: Brc1ccc(CSc2nnc(-c3ccncc3)n2Cc2ccco2)cc1
- EC50 [27]: > 20 µM (inactive)

SMILES: CCOc1cc(/C=N/NC(=O)C(=O)N/N=C/c2ccc(O)c(OCC)c2)ccc1O
- EC50 [28]: > 100 µM (inactive)
- EC50 [29]: 29.1 µM (active)
- EC50 [30]: 100 µM (inactive)
- IC50 [31]: > 100 µM (inactive)

SMILES: O=C(O)c1cc(-c2ccc(F)cc2F)ccc1O [DIFLUNISAL]
- AC50 (Cytochrome P450 3A4): inactive
- AC50 (Cytochrome P450 1A2): inactive
- AC50 (Cytochrome P450 2D6 [32]): inactive
- AC50 (Cytochrome P450 2C19): inactive
